Assay results reported in patent US20120083473A1, “TREATMENT OF CONDITIONS BY TOLL-LIKE RECEPTOR MODULATORS” (priority 2010, published 2012).

Experiments:
human monocytes (Mo) = test: M1/M2 gene expression in human monocytes (Real-Time PCR); format: cell-based
Method: To evaluate the effects of TMX on human cell activation, monocytes were isolated from buffy coats obtained from four different healthy donors. With respect to macrophage tolerance, cells were treated with Compound 2 (10 microM) up to 20 hours and then re-challenged with agonists/ligands of different TLRs (TLR2, TLR4, TLR5, TLR9, TLR7, etc. . . . ), including the TLR7 unconjugated ligand 1V209 (free pharmacophore) at a concentration of 10 microM.
Cell Culture and treatments. Monocytes (Mo) were obtained from buffycoats collected from healthy donors as previously described (Porta C et al, PNAS 2009). Cells were incubated in RPMI 1640 medium, containing 10% fetal bovine serum, 2 mM glutamine and 100 U/ml of penicillin-streptomycin. The concentrations for the different treatments were as follows: LPS (100 ng/ml) (Lipopolysaccharide from Salmonella Abortus Equi S-form, Alexis), CpG (1 microg/ml), Pam3CSK (2 microg/ml), Poly I:C (10 microg/ml), Loxorubine (100 microM), flagellin (100 ng/ml). To induce TMX tolerance, cells were incubated in the presence of TMX (10 microM) for 20 hrs, washed and maintained in RPMI medium for 2 hrs and then re-challenged with TMX (10 microM) for 4 hrs. To induce TMX-tolerization (T/M) cells were treated with TMX for 20 hrs, washed and then maintained in medium for additional 6 hours, without TMX re-challenge. To induce M1-activation cells were incubated in medium for 20 hrs, washed, left in medium for 2 hrs and finally stimulated with TMX (10 microM) for 4 hrs. Control cells (M/M) were cultured in medium for the entire period of the experiment. For gene expression analysis, total RNA was extracted from TMX treated and untreated cells with trizol (Invitrogen), according to the manufacturer's instructions. To analyze cytokines and chemokines production supernatants were collected 24 hrs after the second challenge with TMX.
Real-Time PCR. Total RNA was purified as previously described. Briefly, reverse transcription from 1 microgram of RNA was performed using a cDNA Archive kit (Applied Biosystem, NJ, USA). Real time PCR was performed using Power Syber Green PCR Master Mix (Applied Biosystem, NJ, USA) and detected by 7900HT Fast Real-Time System (Applied Biosystem, NJ, USA). Data were processed using the SDS2.2.2 software (Applied Biosystem, NJ, USA). Results were normalized to the expression of the housekeeping gene 8-actin and then expressed as folds of upregulation, with respect to the control cell population.

Stability of the API = format: physicochemical; settings: for stability of powder: preliminary
Method: Compound 2 powder underwent preliminary stability testing at 25° C. for 6 months and 40° C. for three months. […] Aqueous solutions of Compound 2 (2 mg/ml) are stable up to 4 weeks at 37° C.

NF-κB and STATs = NF-κB and STATs activity in TMX-tolerant macrophages (Western blot); format: cell-based, mice
Method: To investigate NF-κB and STATs activity upon TMX-mediated activation and tolerance, p65 and p50 NE-KB nuclear translocation and the levels of phospho-STATs proteins, respectively was analyzed. PEC treated 15 min with IFN-γ (500 U/mL) or with IL-10 (20 ng/ml) were used as positive controls for phospho-STAT1 and phospho-STAT3, respectively. In tolerance TMX 10 microM induces nuclear accumulation of p50 NF-kappaB and phosphorylation of STAT-3 (FIG. 6).
Cell Culture and treatments. Peritoneal exudate cells (PEC) were harvested from mice injected with 1 ml of 3% (w/v) thioglycollate medium (Difco, Detroit, Mich.) 4 days prior to isolation. PECs were incubated in RPMI 1640 medium, containing 10% fetal bovine serum, 2 mM glutamine and 100 U/ml of penicillin-streptomycin. The concentration for the different treatments were as follows: LPS (100 ng/ml) (Lipopolysaccharide from Salmonella Abortus Equi S-form, Alexis), CpG (1 μg/ml), Pam3CSK (2 μg/ml), Poly I:C (10 μg/ml), Loxorubine (100 μM), flagellin (100 ng/ml) IL-1β (20 ng/ml), TNF (20 ng/ml), IL-10 (20 ng/ml) (Peprotech), IFNγ (200 U/ml) (Peprotech). To induce TMX tolerance, cells were incubated in the presence of TMX (10 μM or 1 μM) for 20 hrs, washed and maintained in RPMI medium for 2 hrs and then re-challenged with TMX (10 μM) for 4 hrs. To induce TMX-tolerization (T/M) cells were treated with TMX for 20 hrs, washed and then maintained in medium for additional 6 hours, without TMX re-challenge. To induce M1-activation, cells were incubated in medium for 20 hrs, washed, left in medium for 2 hrs and finally stimulated with TMX (10 μM) for 4 hrs. Control cells (M/M) were cultured in medium for the entire period of the experiment. For gene expression analysis, total RNA was extracted from TMX treated and untreated cells with trizol (Invitrogen), according to the manufacturer's instructions. […]
Western blot analysis. For the NF-κB proteins, nuclear and cytosolic extracts were analyzed by SDS/PAGE (10% acrylamide) as described. […] Then, optical density was determined by “Quantity One” software.

In the case of COCCOc1nc(N)c2nc(O)n(Cc3ccc(C(=O)NCCOCCOCCOCCOCCOCCOCCn4cc(CCC(=O)O)nn4)cc3)c2n1 [Compound 2], the “IL-10 expression in tolerant Mo as compared to activated Mo” value (human monocytes (Mo)) is reported as “inhibited”, the “M1 markers CXCL9, IFNbeta, iNOS and M2 cytokine TGFbeta” value (human monocytes (Mo)) is reported as “No significant modulation” and the “tolerizing and polarizing activity on human cells as compared to murine cells” value (human monocytes (Mo)) is reported as “partial tolerizing and polarizing activity”. For the same compound, the “M1 (TNF-alpha, IL-1-beta IL-6, IL-12, CXCL10) gene expression in state of tolerance” value (human monocytes (Mo); 10 microM, 20 hours, Mo from 3 out of 4 healthy donors) was “low”, the “M1 markers TNF-alpha, IL12-p40 IL-1 IL6 CXCL10 and IFNbeta” value (human monocytes (Mo); TMX pretreatment) was “down-regulated” and the “M2 genes CCL17, CCL18, CCL22 in tolerant versus activated Mo” value (human monocytes (Mo); few exceptions (CCL18, CCL22 in single donors)) was “further induced”. The “M2 signature chemokines CCL17, CCL18 and CCL22” value (human monocytes (Mo); presence of TMX compound) was “increased”, the stability of powder (Stability of the API; 25° C. for 6 months) was “no degradation or impurity profile changes” and the stability of powder (Stability of the API; 40° C. for three months) was “no degradation or impurity profile changes”. For the same compound, the “time aqueous solutions are stable” value (Stability of the API; aqueous solutions 2 mg/ml, 37° C.) was “up to 4 weeks”, the “activation of STAT-6” value (NF-κB and STATs; any condition) was “No detectable activation” and the “nuclear accumulation of p50 NF-kappaB” value (NF-κB and STATs; in tolerance, TMX 10 microM) was “induces”. The “phosphorylation of STAT-3” value (NF-κB and STATs; in tolerance, TMX 10 microM) was “induces”.
